# Data as given in US10640534B2 (Agios Pharmaceuticals, Inc., priority 2012, dated 2020).
# System: U87MG cells
# Test: Cellular assay, inhibition of 2-HG production in U87MG cells
# Type: cell-based
# Conditions: Homo sapiens, U-87 MG, 48 h
# How it was run: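 HT1080 or U87MG cells (U87MG kept with 500 ug/mL G418) seeded at 5000 cells/well and treated with compound at 0.2% final DMSO. Incubated 48 h at 37 °C. 2-HG inhibition determined by LC-MS. Viability read by CellTiter-Glo luminescence at 72 h post-dose.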
row,IC50,Structure (SMILES)
1,< 100 nM,"N#Cc1ccnc(N2C(=O)CC[C@H]2C(=O)N(c2cccc(C3CC3)c2)[C@H](C(=O)NC2CC(F)(F)C2)c2ccccc2Cl)n1 [Compound 182, (S)—N—((S)-1-(2-Chlorophenyl)-2-((3,3-difluorocyclobutyl)amino)-2-oxoethyl)-1-(4-cyanopyrimidin-2-yl)-N-(3-cyclopropylphenyl)-5-oxopyrrolidine-2-carboxamide]"
2,< 100 nM,"N#Cc1cc(F)cc(N(C(=O)[C@@H]2CCC(=O)N2c2nccc(C#N)n2)[C@H](C(=O)NC2CCC(F)(F)CC2)c2ccccc2Cl)c1 [Compound 185, (S)—N—((S)-1-(2-Chlorophenyl)-2-((4,4-difluorocyclohexyl)amino)-2-oxoethyl)-N-(3-cyano-5-fluorophenyl)-1-(4-cyanopyrimidin-2-yl)-5-oxopyrrolidine-2-carboxamide]"
3,< 100 nM,"N#Cc1ccnc(N2C(=O)CC[C@H]2C(=O)N(c2ccccc2F)[C@H](C(=O)NC2CC(F)(F)C2)c2ccccc2Cl)c1 [Compound 187, (S)—N—((S)-1-(2-Chlorophenyl)-2-((3,3-difluorocyclobutyl)amino)-2-oxoethyl)-1-(4-cyanopyridin-2-yl)-N-(2-fluorophenyl)-5-oxopyrrolidine-2-carboxamide]"
4,< 100 nM,"N#Cc1ccnc(N2C(=O)CC[C@H]2C(=O)N(c2cccc(F)c2F)[C@H](C(=O)NC2CC(F)(F)C2)c2ccccc2Cl)c1 [Compound 188, (S)—N—((S)-1-(2-Chlorophenyl)-2-((3,3-difluorocyclobutyl)amino)-2-oxoethyl)-1-(4-cyanopyridin-2-yl)-N-(2,3-difluorophenyl)-5-oxopyrrolidine-2-carboxamide]"
5,< 100 nM,"N#Cc1ccnc(N2C(=O)[C@@H](O)C[C@H]2C(=O)N(c2cccc(F)c2)[C@H](C(=O)NC2CCC(F)(F)CC2)c2ccccc2Cl)n1 [Compound 189, (2S,4S)—N—((S)-1-(2-Chlorophenyl)-2-((4,4-difluorocyclohexyl)amino)-2-oxoethyl)-1-(4-cyanopyrimidin-2-yl)-N-(3-fluorophenyl)-4-hydroxy-5-oxopyrrolidine-2-carboxamide]"
6,< 100 nM,"N#Cc1ccnc(N2C(=O)CC[C@H]2C(=O)N(c2cccc(OC(F)F)c2)[C@H](C(=O)NC2CC(F)(F)C2)c2ccccc2Cl)n1 [Compound 194, (S)—N—((S)-1-(2-Chlorophenyl)-2-((3,3-difluorocyclobutyl)amino)-2-oxoethyl)-1-(4-cyanopyrimidin-2-yl)-N-(3-(difluoromethoxy)phenyl)-5-oxopyrrolidine-2-carboxamide]"

# More lines, now with the values behind:
row,Structure (SMILES),IC50
1,"N#Cc1cc(F)cc(N(C(=O)[C@@H]2CCC(=O)N2c2cc(C#N)ccn2)[C@H](C(=O)NC2CCC(F)(F)CC2)c2ccccc2Cl)c1 [Compound 184, (S)—N—((S)-1-(2-Chlorophenyl)-2-(4,4-difluorocyclohexylamino)-2-oxoethyl)-N-(3-cyano-5-fluorophenyl)-1-(4-cyanopyridin-2-yl)-5-oxopyrrolidine-2-carboxamide]",< 100 nM
2,"C[S@+]([O-])c1cc(F)cc(N(C(=O)[C@@H]2CCC(=O)N2c2cc(C#N)ccn2)[C@H](C(=O)NC2CC(F)(F)C2)c2ccccc2Cl)c1 [Compound 190, (S)—N—((S)-1-(2-Chlorophenyl)-2-(3,3-difluorocyclobutylamino)-2-oxoethyl)-1-(4-cyanopyridin-2-yl)-N-(3-fluoro-5-((S)-methylsulfinyl)phenyl)-5-oxopyrrolidine-2-carboxamide]",< 100 nM
3,"N#Cc1cc(C#N)cc(N(C(=O)[C@@H]2CCC(=O)N2c2cc(C#N)ccn2)C(C(=O)NC2CC(F)(F)C2)c2ccccc2Cl)c1 (stereo partly drawn) [Compound 191, (2S)—N-(1-(2-Chlorophenyl)-2-((3,3-difluorocyclobutyl)amino)-2-oxoethyl)-1-(4-cyanopyridin-2-yl)-N-(3,5-dicyanophenyl)-5-oxopyrrolidine-2-carboxamide]",< 100 nM
4,"N#Cc1ccnc(N2C(=O)CC[C@H]2C(=O)N(c2cncc(F)c2)[C@H](C(=O)NC2CCC(F)(F)CC2)c2ccccc2Cl)c1 [Compound 193, (S)—N—((S)-1-(2-Chlorophenyl)-2-(4,4-difluorocyclohexylamino)-2-oxoethyl)-1-(4-cyanopyridin-2-yl)-N-(5-fluoropyridin-3-yl)-5-oxopyrrolidine-2-carboxamide]",< 100 nM
5,"N#Cc1ccnc(N2C(=O)CC[C@H]2C(=O)N(c2cc(F)cc(F)c2)C(C(=O)NC2CC(F)(F)C2)c2cccc(Cl)c2Cl)c1 (stereo partly drawn) [Compound 195, (2S)-1-(4-Cyanopyridin-2-yl)-N-(1-(2,3-dichlorophenyl)-2-(3,3-difluoro-cyclobutylamino)-2-oxoethyl)-N-(3,5-difluorophenyl)-5-oxopyrrolidine-2-carboxamide]",< 100 nM
6,"N#Cc1ccnc(N2C(=O)CC[C@H]2C(=O)N(c2cc(F)cc(F)c2)[C@H](C(=O)NC2CC(F)(F)C2)c2ccc(Cl)cc2Cl)c1 [Compound 196, (S)-1-(4-Cyanopyridin-2-yl)-N—((S)-1-(2,4-dichlorophenyl)-2-((3,3-difluorocyclobutyl)-amino)-2-oxoethyl)-N-(3,5-difluorophenyl)-5-oxopyrrolidine-2-carboxamide]",< 100 nM
7,"N#Cc1ccnc(N2C(=O)CC[C@H]2C(=O)N(c2cc(F)ccc2F)[C@H](C(=O)NC2CC(F)(F)C2)c2ccccc2Cl)c1 [Compound 197, (S)—N—((S)-1-(2-Chlorophenyl)-2-((3,3-difluorocyclobutyl)amino)-2-oxoethyl)-1-(4-cyanopyridin-2-yl)-N-(2,5-difluorophenyl)-5-oxopyrrolidine-2-carboxamide]",< 100 nM
8,"N#Cc1ccnc(N2C(=O)CC[C@H]2C(=O)N(c2cc(F)cc(F)c2)[C@H](C(=O)NC2CC(F)(F)C2)c2ncccc2Cl)c1 [Compound 198, (S)—N—((S)-1-(3-Chloropyridin-2-yl)-2-(3,3-difluorocyclobutylamino)-2-oxoethyl)-1-(4-cyanopyridin-2-yl)-N-(3,5-difluorophenyl)-5-oxopyrrolidine-2-carboxamide]",< 100 nM
9,"N#Cc1ccnc(N2C(=O)CC[C@H]2C(=O)N(c2cc(F)cc(F)c2)[C@H](C(=O)NC2CC(F)(F)C2)c2c(Cl)cccc2Cl)c1 [Compound 199, (S)-1-(4-Cyanopyridin-2-yl)-N—((S)-1-(2,6-dichlorophenyl)-2-((3,3-difluorocyclobutyl)amino)-2-oxoethyl)-N-(3,5-difluorophenyl)-5-oxopyrrolidine-2-carboxamide]",< 100 nM
10,"N#Cc1ccnc(N2C(=O)CC[C@H]2C(=O)N(c2cc(F)cc(F)c2)[C@H](C(=O)NC2CC(F)(F)C2)c2cc(Cl)ccc2Cl)c1 [Compound 201, (S)-1-(4-Cyanopyridin-2-yl)-N—((S)-1-(2,5-dichlorophenyl)-2-((3,3-difluorocyclobutyl)-amino)-2-oxoethyl)-N-(3,5-difluorophenyl)-5-oxopyrrolidine-2-carboxamide]",< 100 nM
11,"N#Cc1ccnc(N2C(=O)CC[C@H]2C(=O)N(c2cc(F)cc(C3CC3)c2)[C@H](C(=O)NC2CCC(F)(F)CC2)c2ccccc2Cl)c1 [Compound 202, (S)—N—((S)-1-(2-Chlorophenyl)-2-((4,4-difluorocyclohexyl)amino)-2-oxoethyl)-1-(4-cyanopyridin-2-yl)-N-(3-cyclopropyl-5-fluorophenyl)-5-oxopyrrolidine-2-carboxamide]",< 100 nM
